Biological target: T1, KRAS G12C 1-169, his-tagged protein, GDP-loaded (Homo sapiens, UniProt P01116, G12C)
T1 construct: KRAS G12C 1-169, his-tagged protein, GDP-loaded
Test: KRAS G12C covalent binding (% modification) by mass spectrometry, ten or three minute incubation
Conditions: covalent binding to KRAS G12C, % modification after a three minute incubation period
Summary of the method: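 GDP-loaded protein in 20 mM Hepes, 150 mM NaCl, 1 mM MgCl2 was incubated with compound (final 100, 30 or 10 μM; 2% DMSO) at room temperature, then quenched with formic acid. Intact-protein LC-MS with charge-envelope deconvolution gave masses and intensities of modified and unmodified species.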

Compound | Binding %
C=CC(=O)N1C[C@H](C)N(c2nc(N3CC(N(C)C)C3)nc3c(F)c(-c4c(O)cccc4F)c(Cl)cc23)C[C@@H]1C [Compound 94, 1-((2S,5S)-4-(6-chloro-2-(3-(dimethylamino)azetidin-1-yl)-8-fluoro-7-(2-fluoro-6-hydroxyphenyl)quinazolin-4-yl)-2,5-dimethylpiperazin-1-yl)prop-2-en-1-one] | + (+ indicates binding activity greater than 0% and up to 50%)
C=CC(=O)N1C[C@H](C)N(c2nc(N3CC(N(C)C)C3)nc3c(F)c(-c4cc(O)cc5ccccc45)c(C(F)(F)F)cc23)C[C@H]1C [Compound 178, 1-((2R,5S)-4-(2-(3-(dimethylamino)azetidin-1-yl)-8-fluoro-7-(3-hydroxynaphthalen-1-yl)-6-(trifluoromethyl)quinazolin-4-yl)-2,5-dimethylpiperazin-1-yl)prop-2-en-1-one] | +++ (+++ indicates binding activity greater than 90%)
C=CC(=O)N1C[C@H](C)N(c2nc(N3CC(N(C)C)C3)nc3c(F)c(-c4c(C)ccc5cn[nH]c45)c(Cl)cc23)C[C@H]1C [Compound 187, 1-((2R,5S)-4-(6-chloro-2-(3-(dimethylamino)azetidin-1-yl)-8-fluoro-7-(6-methyl-1H-indazol-7-yl)quinazolin-4-yl)-2,5-dimethylpiperazin-1-yl)prop-2-en-1-one] | +++ (+++ indicates binding activity greater than 90%)
[2H]C([2H])([2H])N(C1CN(c2nc(N3C[C@@H](C)N(C(=O)C=C)C[C@@H]3C)c3cc(Cl)c(-c4c(O)cccc4F)c(F)c3n2)C1)C([2H])([2H])[2H] [Compound 196, 1-((2R,5S)-4-(2-(3-(bis(trideuteromethyl)amino)azetidin-1-yl)-6-chloro-8-fluoro-7-(2-fluoro-6-hydroxyphenyl)quinazolin-4-yl)-2,5-dimethylpiperazin-1-yl)prop-2-en-1-one] | +++ (+++ indicates binding activity greater than 90%)
C=CC(=O)N1C[C@H](C)N(c2nc(N3CC(N(C)C)C3)nc3c(F)c(-c4c(O)cccc4F)c(C(F)(F)F)cc23)C[C@H]1C [Compound 206, 1-((2R,5S)-4-(2-(3-(dimethylamino)azetidin-1-yl)-8-fluoro-7-(2-fluoro-6-hydroxyphenyl)-6-(trifluoromethyl)quinazolin-4-yl)-2,5-dimethylpiperazin-1-yl)prop-2-en-1-one] | +++ (+++ indicates binding activity greater than 90%)
C=CC(=O)N1C[C@H](C)N(c2nc(OC3CCN(C)CC3)nc3c(F)c(-c4cc(O)cc5ccccc45)c(Cl)cc23)C[C@H]1C [Compound 245, 1-((2R,5S)-4-(6-chloro-8-fluoro-7-(3-hvdroxynaphthalen-1-yl)-2-((1-methylpiperidin-4-yl)oxy)quinazolin-4-yl)-2,5-dimethylpiperazin-1-yl)prop-2-en-1-one] | +++ (+++ indicates binding activity greater than 90%)
C=CC(=O)N1C[C@H](C)N(c2nc(N3CC(N(C)C)C3)nc3c(F)c(-c4c(C)ccc5c(C)n[nH]c45)c(Cl)cc23)C[C@H]1C [Compound 246, 1-((2R,5S)-4-(6-chloro-7-(3,6-dimethyl-1H-indazol-7-yl)-2-(3-(dimethylamino)azetidin-1-yl)-8-fluoroquinazolin-4-yl)-2,5-dimethylpiperazin-1-yl)prop-2-en-1-one] | + (+ indicates binding activity greater than 0% and up to 50%)
C=CC(=O)N1C[C@H](C)N(c2nc(OCCCN3CC(F)(F)C3)nc3c(F)c(-c4cc(O)cc5ccccc45)c(Cl)cc23)C[C@H]1C [Compound 247, 1-((2R,5S)-4-(6-chloro-2-(3-(3,3-difluoroazetidin-1-yl)propoxy)-8-fluoro-7-(3-hydroxynaphthalen-1-yl)quinazolin-4-yl)-2,5-dimethylpiperazin-1-yl)prop-2-en-1-one] | + (+ indicates binding activity greater than 0% and up to 50%)
C=CC(=O)N1C[C@H](C)N(c2nc(OCCCN3CC(F)(F)C3)nc3c(F)c(-c4c(C)ccc5[nH]ncc45)c(Cl)cc23)C[C@H]1C [Compound 248, 1-((2R,5S)-4-(6-chloro-2-(3-(3,3-difluoroazetidin-1-yl)propoxy)-8-fluoro-7-(5-methyl-1H-indazol-4-yl)quinazolin-4-yl)-2,5-dimethylpiperazin-1-yl)prop-2-en-1-one] | ++ (++ indicates binding activity from 50 to 90%)
C=CC(=O)N1C[C@H](C)N(c2nc(OCCCN3CC(F)(F)C3)nc3c(F)c(-c4c(O)cccc4F)c(Cl)cc23)C[C@H]1C [Compound 250, 1-((2R,5S)-4-(6-chloro-2-(3-(3,3-difluoroazetidin-1-yl)propoxy)-8-fluoro-7-(2-fluoro-6-hydroxyphenyl)quinazolin-4-yl)-2,5-dimethylpiperazin-1-yl)prop-2-en-1-one] | +++ (+++ indicates binding activity greater than 90%)
C=CC(=O)N1C[C@H](C)N(c2nc(N3CC(N(C)C)C3)nc3c(Cl)c(-c4c(O)cccc4F)c(Cl)cc23)C[C@H]1C [Compound 251, 1-((2R,5S)-4-(6,8-dichloro-2-(3-(dimethylamino)azetidin-1-yl)-7-(2-fluoro-6-hydroxyphenyl)quinazolin-4-yl)-2,5-dimethylpiperazin-1-yl)prop-2-en-1-one] | ++ (++ indicates binding activity from 50 to 90%)
C=CC(=O)N1C[C@H](C)N(c2nc(N3CC(N(C)C)C3)nc3c(F)c(-c4c(C)ccc5[nH]nc(C)c45)c(Cl)cc23)C[C@H]1C [Compound 252, 1-((2R,5S)-4-(6-chloro-7-(3,5-dimethyl-1H-indazol-4-yl)-2-(3-(dimethylamino)azetidin-1-yl)-8-fluoroquinazolin-4-yl)-2,5-dimethylpiperazin-1-yl)prop-2-en-1-one] | +++ (+++ indicates binding activity greater than 90%)
C=CC(=O)N1C[C@H](C)N(c2nc(OCCO)nc3c(F)c(-c4c(O)cccc4F)c(Cl)cc23)C[C@H]1C [Compound 253, 1-((2R,5S)-4-(6-chloro-8-fluoro-7-(2-fluoro-6-hydroxyphenyl)-2-(2-hydroxyethoxy)quinazolin-4-yl)-2,5-dimethylpiperazin-1-yl)prop-2-en-1-one] | ++ (++ indicates binding activity from 50 to 90%)
C=CC(=O)N1C[C@H](C)N(c2nc(OCCn3cnc4ccccc43)nc3c(F)c(-c4c(O)cccc4F)c(Cl)cc23)C[C@H]1C [Compound 254, 1-((2R,5S)-4-(2-(2-(1H-benzo[d]imidazol-1-yl)ethoxy)-6-chloro-8-fluoro-7-(2-fluoro-6-hydroxyphenyl)quinazolin-4-yl)-2,5-dimethylpiperazin-1-yl)prop-2-en-1-one] | + (+ indicates binding activity greater than 0% and up to 50%)
C=CC(=O)N1C[C@H](C)N(c2nc(N3CC(N(C)C)C3)nc3c(F)c(-c4c(F)ccc(Cl)c4O)c(Cl)cc23)C[C@H]1C [Compound 260, 1-((2R,5S)-4-(6-chloro-7-(3-chloro-6-fluoro-2-hydroxyphenyl)-2-(3-(dimethylamino)azetidin-1-yl)-8-fluoroquinazolin-4-yl)-2,5-dimethylpiperazin-1-yl)prop-2-en-1-one] | ++ (++ indicates binding activity from 50 to 90%)
C=CC(=O)N1C[C@H](C)N(c2nc(N3CC(N(C)C)C3)nc3c(F)c(-c4c(F)ccc5cn[nH]c45)c(Cl)cc23)C[C@H]1C [Compound 261, 1-((2R,5S)-4-(6-chloro-2-(3-(dimethylamino)azetidin-1-yl)-8-fluoro-7-(6-fluoro-1H-indazol-7-yl)quinazolin-4-yl)-2,5-dimethylpiperazin-1-yl)prop-2-en-1-one] | +++ (+++ indicates binding activity greater than 90%)
C=CC(=O)N1C[C@H](C)N(c2nc(OCCn3ccc4cccnc43)nc3c(F)c(-c4c(O)cccc4F)c(Cl)cc23)C[C@H]1C [Compound 263, 1-((2R,5S)-4-(2-(2-(1H-pyrrolo[2,3-b]pyridin-1-yl)ethoxy)-6-chloro-8-fluoro-7-(2-fluoro-6-hydroxyphenyl)quinazolin-4-yl)-2,5-dimethylpiperazin-1-yl)prop-2-en-1-one] | + (+ indicates binding activity greater than 0% and up to 50%)
C=CC(=O)N1C[C@H](C)N(c2nc(N3CC(N(C)C)C3)nc3c(F)c(-c4c(C)ccc5[nH]ccc45)c(Cl)cc23)C[C@H]1C [Compound 266, 1-((2R,5S)-4-(6-chloro-2-(3-(dimethylamino)azetidin-1-yl)-8-fluoro-7-(5-methyl-1H-indol-4-yl)quinazolin-4-yl)-2,5-dimethylpiperazin-1-yl)prop-2-en-1-one] | +++ (+++ indicates binding activity greater than 90%)
C=CC(=O)N1C[C@H](C)N(c2nc(N3CC(N(C)C)C3)nc3c(F)c(-c4c(C)ccc5[nH]cnc45)c(Cl)cc23)C[C@H]1C [Compound 273, 1-((2R,5S)-4-(6-chloro-2-(3-(dimethylamino)azetidin-1-yl)-8-fluoro-7-(5-methyl-1H-benzo[d]imidazol-4-yl)quinazolin-4-yl)-2,5-dimethylpiperazin-1-yl)prop-2-en-1-one] | +++ (+++ indicates binding activity greater than 90%)
C=CC(=O)N1C[C@H](C)N(c2nc(OCC(C)(C)N)nc3c(F)c(-c4c(O)cccc4F)c(Cl)cc23)C[C@H]1C [Compound 274, 1-((2R,5S)-4-(2-(2-amino-2-methylpropoxy)-6-chloro-8-fluoro-7-(2-fluoro-6-hydroxyphenyl)quinazolin-4-yl)-2,5-dimethylpiperazin-1-yl)prop-2-en-1-one] | + (+ indicates binding activity greater than 0% and up to 50%)
C=CC(=O)N1C[C@H](C)N(c2nc(OCCn3ccnc3C3CC3)nc3c(F)c(-c4c(C)ccc5[nH]ncc45)c(Cl)cc23)C[C@H]1C [Compound 276, 1-((2R,5S)-4-(6-chloro-2-(2-(2-cyclopropyl-1H-imidazol-1-yl)ethoxy)-8-fluoro-7-(5-methyl-1H-indazol-4-yl)quinazolin-4-yl)-2,5-dimethylpiperazin-1-yl)prop-2-en-1-one] | ++ (++ indicates binding activity from 50 to 90%)
